Measured values taken from PMC10824666 (Nature Cancer, 2023).
Like-named read-outs stand apart in the source and are kept apart here. One block for each compound: values may come before it.

Legend:
Assay in all cases: biochemical
Design in all cases: Eurofins DiscoverX kinase panel, competitive binding assay at 1 uM, percent of DMSO control
Details in all cases: competitive binding, percent of DMSO control
[1] = biological target: T1, Aurora 2 (Homo sapiens, UniProt O14965)
T1 construct: gene AURKA
T1 sequence (O14965 1-403): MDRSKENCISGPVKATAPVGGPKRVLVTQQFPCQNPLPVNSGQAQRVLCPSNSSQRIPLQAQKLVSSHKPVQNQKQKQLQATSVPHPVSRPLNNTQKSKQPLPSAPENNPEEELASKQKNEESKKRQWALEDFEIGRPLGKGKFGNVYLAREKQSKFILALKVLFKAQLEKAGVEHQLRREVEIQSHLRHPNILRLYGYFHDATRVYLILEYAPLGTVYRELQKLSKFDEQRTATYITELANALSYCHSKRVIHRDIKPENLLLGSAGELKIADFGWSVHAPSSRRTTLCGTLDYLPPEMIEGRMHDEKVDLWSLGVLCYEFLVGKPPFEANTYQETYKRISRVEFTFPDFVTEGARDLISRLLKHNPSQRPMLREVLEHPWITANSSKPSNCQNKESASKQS
Protocol: (§1) Extended Data Fig. 3 In vitro characterization of potent and selective KIF18A inhibitors. a, KIF18A compounds (1 µM) were assessed across a panel of kinases (n = 96) by a competitive binding assay. Graph presented as percentage of control (POC); dashed line indicates POC value of 30 (n = 1 experiment). b, Tubulin polymerization analysis. Profile of KIF18A compounds (10 µM) relative to DMSO, paclitaxel (5 µM, tubulin stabilizer), or nocodazole (5 µM, tubulin destabilizer). Graphs presented as tubulin fluorescence signal at 440 nm expressed as arbitrary units (a.u.) versus time (min) with area-under-the-curve (AUC) values (n = 1 or 3 independent experiments). c, Mitotic spindle image analysis. […] Representative images were captured with x40 objective (scale bar = 10 µm) (n = 1 experiment). d-f, KIF18A compound effects on HeLa cells. d, Cells were treated for 96 h with DMSO or KIF18A compounds at the indicated concentrations. KIF18A compound concentration-response profiles presented as count relative to the percentage of DMSO control (POC) with count EC50 values (n = 2 independent experiments in duplicate). e, KIF18A protein localization in cells after treatment for 6 hours with DMSO or AM-1882 (0.05 µM). Cells stained to detect DNA, KIF18A, and centrin-3. Representative images of mitotic cells (n = 3 per group) were captured with x60 objective (scale bar = 5 µm) and graphs of line scan measurements were obtained for DNA, KIF18A, and centrin-3 channels expressed as fluorescence intensity (a.u.) versus distance (µm) (n = 1 experiment). f, Mitotic cell fate imaging analysis. HeLa Kyoto cells co-expressing α-tubulin-EGFP and H2B-mCherry proteins released from a G1S block in media containing DMSO or AM-1882 (0.2 µM). Analysis was performed on cells entering the first mitosis (n = 40 cells per group). Graph presented as time in mitosis (h) versus mitotic cell fate, either complete cell division (CCD) or death in mitosis (DiM). Classified cells exiting mitosis by the number of daughter cells and cell death in […] We screened a small-molecule library of diverse compounds for selective inhibitors of KIF18A MT-ATPase motor activity. Two compound hits were discovered that phenocopied the effects of KIF18A KD in cells; these hits are structurally distinct from the KIF18A inhibitor BTB-1 (refs. [27],[28]). […] However, the potency of the KIF18A inhibitors was unaffected by varying ATP and MT concentrations (Extended Data Fig. 2d). This supports our proposed model in which KIF18A inhibitors occupy an allosteric pocket formed by motor helices α4 and α6 close to the motor MT-binding surface. To screen for potential off-target interactions with essential mitotic kinases, three of the KIF18A compounds were profiled against a large panel of kinases. […] We next investigated whether our KIF18A inhibitors affected tubulin polymerization in vitro in the absence of the KIF18A motor. All four KIF18A compounds had tubulin-polymerization profiles similar to that of the DMSO control and distinct from those of the paclitaxel (MT stabilizer) and nocodazole (MT destabilizer) co

[2] = biological target: T2, CHK1 (Homo sapiens, UniProt O14757)
T2 construct: gene CHEK1
T2 sequence (O14757 1-476): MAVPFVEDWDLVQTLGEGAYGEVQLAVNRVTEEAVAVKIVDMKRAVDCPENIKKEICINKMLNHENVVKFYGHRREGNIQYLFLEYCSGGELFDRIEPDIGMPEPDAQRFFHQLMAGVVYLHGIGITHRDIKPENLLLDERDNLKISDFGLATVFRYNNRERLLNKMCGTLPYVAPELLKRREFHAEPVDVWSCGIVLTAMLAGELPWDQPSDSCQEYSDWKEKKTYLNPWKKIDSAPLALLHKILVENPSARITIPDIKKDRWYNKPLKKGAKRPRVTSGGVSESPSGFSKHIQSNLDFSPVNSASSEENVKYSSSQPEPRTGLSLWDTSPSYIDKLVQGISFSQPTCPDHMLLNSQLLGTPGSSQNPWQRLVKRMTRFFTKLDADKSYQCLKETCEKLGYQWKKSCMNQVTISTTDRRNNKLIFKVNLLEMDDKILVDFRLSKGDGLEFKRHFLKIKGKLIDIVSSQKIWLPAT
Protocol: as §1

[3] = biological target: HIPK1 (Homo sapiens, UniProt Q86Z02)
Protocol: as §1

[4] = biological target: MAP3K1 (Homo sapiens, UniProt Q13233)
Protocol: as §1

[5] = biological target: RPS6KB1 (Homo sapiens, UniProt P23443)
Protocol: as §1

[6] = biological target: Syk (Homo sapiens, UniProt P43405)
Protocol: as §1

[7] = biological target: T3, Trk-A (Homo sapiens, UniProt P04629)
T3 construct: gene NTRK1
Protocol: as §1

[8] = read-out: Kinome Profiling performed by Eurofins DiscoverX / AM-0277, 1.0 µM / POC
[9] = read-out: Kinome Profiling performed by Eurofins DiscoverX / AM-1882, 1.0 µM / POC
[10] = read-out: Kinome Profiling performed by Eurofins DiscoverX / AM-5308, 1.0 µM / POC

Sequence of RPS6KB1 (P23443 whole entry): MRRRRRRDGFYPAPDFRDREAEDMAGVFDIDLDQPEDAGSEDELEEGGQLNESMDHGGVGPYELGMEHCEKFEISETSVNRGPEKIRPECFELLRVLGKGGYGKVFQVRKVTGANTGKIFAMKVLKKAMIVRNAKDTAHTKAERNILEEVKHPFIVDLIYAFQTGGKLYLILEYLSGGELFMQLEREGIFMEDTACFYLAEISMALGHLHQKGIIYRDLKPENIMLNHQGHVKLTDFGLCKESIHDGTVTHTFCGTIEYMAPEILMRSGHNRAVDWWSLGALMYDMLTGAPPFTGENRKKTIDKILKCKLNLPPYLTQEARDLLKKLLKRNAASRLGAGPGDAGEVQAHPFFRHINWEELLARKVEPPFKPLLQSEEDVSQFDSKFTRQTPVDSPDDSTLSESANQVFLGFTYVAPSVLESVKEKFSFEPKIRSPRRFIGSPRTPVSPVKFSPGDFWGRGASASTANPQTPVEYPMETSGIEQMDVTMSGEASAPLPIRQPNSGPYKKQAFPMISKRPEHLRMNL
Sequence of MAP3K1 (Q13233 whole entry): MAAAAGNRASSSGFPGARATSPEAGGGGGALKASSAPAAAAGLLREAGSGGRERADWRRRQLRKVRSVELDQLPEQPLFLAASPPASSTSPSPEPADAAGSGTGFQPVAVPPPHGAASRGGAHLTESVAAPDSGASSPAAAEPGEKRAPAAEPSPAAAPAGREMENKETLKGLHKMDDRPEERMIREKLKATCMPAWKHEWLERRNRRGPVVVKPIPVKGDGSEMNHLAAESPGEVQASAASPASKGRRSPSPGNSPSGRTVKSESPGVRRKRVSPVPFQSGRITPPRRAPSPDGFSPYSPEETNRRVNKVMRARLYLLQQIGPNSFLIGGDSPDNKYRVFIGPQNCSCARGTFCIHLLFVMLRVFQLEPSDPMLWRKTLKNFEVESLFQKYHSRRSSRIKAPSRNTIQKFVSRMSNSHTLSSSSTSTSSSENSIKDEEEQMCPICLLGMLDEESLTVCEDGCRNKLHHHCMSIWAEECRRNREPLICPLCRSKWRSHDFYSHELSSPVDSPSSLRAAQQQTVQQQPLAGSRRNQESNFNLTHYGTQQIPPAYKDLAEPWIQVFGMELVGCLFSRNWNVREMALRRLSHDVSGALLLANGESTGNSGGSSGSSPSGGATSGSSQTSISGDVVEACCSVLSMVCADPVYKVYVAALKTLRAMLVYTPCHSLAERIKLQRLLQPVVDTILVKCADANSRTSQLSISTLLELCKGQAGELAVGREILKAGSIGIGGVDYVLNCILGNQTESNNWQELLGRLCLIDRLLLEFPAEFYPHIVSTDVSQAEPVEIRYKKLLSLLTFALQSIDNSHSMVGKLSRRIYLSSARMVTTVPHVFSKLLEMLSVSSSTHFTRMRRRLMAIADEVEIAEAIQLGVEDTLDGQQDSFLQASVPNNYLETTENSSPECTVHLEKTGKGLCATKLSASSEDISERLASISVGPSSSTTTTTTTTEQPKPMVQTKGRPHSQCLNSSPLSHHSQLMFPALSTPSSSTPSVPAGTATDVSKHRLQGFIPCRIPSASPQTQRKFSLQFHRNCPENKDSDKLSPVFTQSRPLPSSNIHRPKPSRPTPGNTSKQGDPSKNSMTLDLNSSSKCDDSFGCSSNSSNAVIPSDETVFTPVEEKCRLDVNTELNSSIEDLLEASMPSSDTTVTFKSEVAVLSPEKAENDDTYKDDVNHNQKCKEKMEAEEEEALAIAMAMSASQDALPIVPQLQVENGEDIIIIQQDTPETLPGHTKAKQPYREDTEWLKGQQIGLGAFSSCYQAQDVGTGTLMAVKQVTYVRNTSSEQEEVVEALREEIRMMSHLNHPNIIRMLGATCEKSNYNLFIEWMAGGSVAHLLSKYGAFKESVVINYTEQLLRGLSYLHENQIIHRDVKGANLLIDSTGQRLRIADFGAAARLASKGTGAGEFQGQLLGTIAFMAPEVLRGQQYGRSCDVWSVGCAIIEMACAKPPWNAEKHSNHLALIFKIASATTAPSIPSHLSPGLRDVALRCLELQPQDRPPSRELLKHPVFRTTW
T3 sequence (P04629 whole entry): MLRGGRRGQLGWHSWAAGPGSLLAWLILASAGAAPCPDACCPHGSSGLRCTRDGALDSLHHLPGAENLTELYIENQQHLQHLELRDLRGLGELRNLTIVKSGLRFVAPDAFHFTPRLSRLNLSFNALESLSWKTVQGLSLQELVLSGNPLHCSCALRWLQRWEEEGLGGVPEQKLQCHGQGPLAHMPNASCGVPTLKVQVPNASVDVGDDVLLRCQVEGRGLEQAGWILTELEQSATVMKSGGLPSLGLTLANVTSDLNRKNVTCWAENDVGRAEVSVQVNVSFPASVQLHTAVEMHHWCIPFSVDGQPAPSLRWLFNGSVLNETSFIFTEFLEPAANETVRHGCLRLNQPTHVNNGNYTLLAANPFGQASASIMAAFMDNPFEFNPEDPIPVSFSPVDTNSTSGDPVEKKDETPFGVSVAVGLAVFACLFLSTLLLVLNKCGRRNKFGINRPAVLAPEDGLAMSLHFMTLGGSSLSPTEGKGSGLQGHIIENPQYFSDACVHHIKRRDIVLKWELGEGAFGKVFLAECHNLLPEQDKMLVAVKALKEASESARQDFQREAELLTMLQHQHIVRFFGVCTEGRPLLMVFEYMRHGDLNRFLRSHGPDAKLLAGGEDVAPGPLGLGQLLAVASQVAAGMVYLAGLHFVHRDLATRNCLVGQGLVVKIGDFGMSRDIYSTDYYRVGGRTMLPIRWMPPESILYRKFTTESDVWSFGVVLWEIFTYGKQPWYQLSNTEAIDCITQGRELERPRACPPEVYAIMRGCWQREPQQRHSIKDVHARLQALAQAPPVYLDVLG
Sequence of HIPK1 (Q86Z02 whole entry): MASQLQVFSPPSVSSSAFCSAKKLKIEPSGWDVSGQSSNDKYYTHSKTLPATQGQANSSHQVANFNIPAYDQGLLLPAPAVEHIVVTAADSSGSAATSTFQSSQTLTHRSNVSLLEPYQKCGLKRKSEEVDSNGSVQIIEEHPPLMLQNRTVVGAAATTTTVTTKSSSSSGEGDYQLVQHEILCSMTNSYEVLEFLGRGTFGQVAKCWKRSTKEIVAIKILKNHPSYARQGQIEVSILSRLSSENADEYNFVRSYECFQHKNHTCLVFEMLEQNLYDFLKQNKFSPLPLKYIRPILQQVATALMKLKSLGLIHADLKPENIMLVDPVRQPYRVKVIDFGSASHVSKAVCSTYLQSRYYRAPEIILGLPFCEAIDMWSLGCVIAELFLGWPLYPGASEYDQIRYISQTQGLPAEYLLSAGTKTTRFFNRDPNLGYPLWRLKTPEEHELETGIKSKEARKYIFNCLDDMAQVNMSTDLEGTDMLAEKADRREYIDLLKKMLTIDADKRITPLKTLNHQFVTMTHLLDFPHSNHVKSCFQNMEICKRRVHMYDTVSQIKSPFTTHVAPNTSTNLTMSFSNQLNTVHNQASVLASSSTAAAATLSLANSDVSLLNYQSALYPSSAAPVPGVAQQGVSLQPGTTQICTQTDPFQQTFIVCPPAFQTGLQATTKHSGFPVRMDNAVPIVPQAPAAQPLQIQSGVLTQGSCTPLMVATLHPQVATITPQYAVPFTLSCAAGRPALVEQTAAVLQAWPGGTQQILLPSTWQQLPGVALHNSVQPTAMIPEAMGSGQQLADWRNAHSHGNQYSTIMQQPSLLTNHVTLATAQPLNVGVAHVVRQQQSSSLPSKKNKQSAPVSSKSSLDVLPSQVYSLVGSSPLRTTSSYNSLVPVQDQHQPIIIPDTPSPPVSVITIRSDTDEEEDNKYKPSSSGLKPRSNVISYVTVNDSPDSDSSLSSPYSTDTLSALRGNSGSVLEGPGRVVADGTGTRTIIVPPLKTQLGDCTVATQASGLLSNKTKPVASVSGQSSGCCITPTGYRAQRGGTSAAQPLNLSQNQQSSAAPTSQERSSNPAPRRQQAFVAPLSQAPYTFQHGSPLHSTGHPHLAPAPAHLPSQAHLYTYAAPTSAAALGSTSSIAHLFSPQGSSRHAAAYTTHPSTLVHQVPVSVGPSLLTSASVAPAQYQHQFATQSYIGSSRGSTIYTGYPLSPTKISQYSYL

remaining activity at 1 µM [1, 8]: 100%
remaining activity at 1 µM [2, 8]: 100%
remaining activity at 1 µM [3, 8]: 61%
remaining activity at 1 µM [4, 8]: 100%
remaining activity at 1 µM [5, 8]: 100%
remaining activity at 1 µM [6, 8]: 100%
remaining activity at 1 µM [7, 8]: 40%
Structure (SMILES): CC(C)(CO)Nc1ccc(C(=O)Nc2cccc(S(=O)(=O)C3CCCC3)c2)c(N2CCC3(CC2)CC3)n1 [AM-0277]

remaining activity at 1 µM [1, 9]: 100%
remaining activity at 1 µM [2, 9]: 100%
remaining activity at 1 µM [3, 9]: 73%
remaining activity at 1 µM [4, 9]: 76.5%
remaining activity at 1 µM [5, 9]: 61%
remaining activity at 1 µM [6, 9]: 89.5%
remaining activity at 1 µM [7, 9]: 54.5%
Structure (SMILES): CC(C)(C)NS(=O)(=O)c1cccc(NC(=O)c2ccc(S(=O)(=O)NC(C)(C)C)cc2N2CCC3(CC2)CC3)c1 [AM-1882]

remaining activity at 1 µM [1, 10]: 100%
remaining activity at 1 µM [2, 10]: 100%
remaining activity at 1 µM [3, 10]: 100%
remaining activity at 1 µM [4, 10]: 100%
remaining activity at 1 µM [5, 10]: 94.5%
remaining activity at 1 µM [6, 10]: 79.5%
remaining activity at 1 µM [7, 10]: 17.5%
Structure (SMILES): C[C@@H]1CN(c2cccc(NC(=O)c3ccc(NS(=O)(=O)CCO)cc3N3CCC4(CC3)CC4)n2)CCO1 [AM-5308]
